Columns and labels:
Type in all cases: biochemical
JAK2 = target: T1, JAK2 (Homo sapiens, UniProt O60674); assay: Functional assay of protein kinases (Caliper mobility shift), JAK2; conditions: ATP 300 μM, 30 min incubation
T1 construct: purchased Carna Biosciences 08-045
Experimental: (§1) Functional Assays of Protein Kinases
(§2) The functional assays of protein kinases were carried out in 384-well plates using a final volume of 30 μl. […] The reaction was reads in a “Caliper EzReader LabChip 3000” (Caliper, Hopkinton, Mass.) reader, based on electrophoretic mobility of the fluorescent substrate and the phosphorylated product.
(§3) The inhibition percentages were calculated by comparison between control reactions, for 100% of inhibition and reactions with only DMSO for 0% of inhibition.

Human MLK3 = target: T2, Human MLK3 (Homo sapiens, UniProt Q16584); assay: MLK3 activity inhibition test (Reaction Biology kit, 33P ATP filter assay); conditions: MBP 10 μM, ATP 10 μM
T2 construct: purchased Reaction Biology MLK3
Experimental: MLK3 Activity Inhibition Test
Activity test was carried out using the kit from Reaction Biology (CAT #: MLK3). The test uses enzyme Human MLK3 and substrates are MBP (Myelin Basic Protein, HGNC ID:6925) 10 μM and ATP 10 μM. Other reagents are the following: Base Reaction buffer; 20 mM Hepes (pH 7.5), 10 mM MgCl2, 1 mM EGTA, 0.02% Brij35, 0.02 mg/ml BSA, 0.1 mM Na3VO4, 2 mM DTT, 1% DMSO.
The reaction was carried out following the instructions of manufacturer. Briefly, kinase/substrate pairs were prepared in reaction buffer. Compounds were delivered into the reaction, followed 20 minutes later by addition of a mixture of ATP (Sigma, St. Louis Mo.) and ^33P ATP (Perkin Elmer, Waltham Mass.) to a final concentration of 10 μM. Reactions were carried out at room temperature for 120 min, followed by spotting of the reactions onto P81 ion exchange filter paper (Whatman Inc., Piscataway, N.J.). Unbound phosphate was removed by extensive washing of filters in 0.75% phosphoric acid. […] IC50 values and curve fits were obtained using Prism (GraphPad Software).

TYK2 = target: T3, TYK2 (Homo sapiens, UniProt P29597); assay: Functional assay of protein kinases (Caliper mobility shift), TYK2; conditions: ATP 20 μM, 45 min incubation
T3 construct: purchased Carna Biosciences 08-147
T3 sequence (P29597 871-1187 limits assumed): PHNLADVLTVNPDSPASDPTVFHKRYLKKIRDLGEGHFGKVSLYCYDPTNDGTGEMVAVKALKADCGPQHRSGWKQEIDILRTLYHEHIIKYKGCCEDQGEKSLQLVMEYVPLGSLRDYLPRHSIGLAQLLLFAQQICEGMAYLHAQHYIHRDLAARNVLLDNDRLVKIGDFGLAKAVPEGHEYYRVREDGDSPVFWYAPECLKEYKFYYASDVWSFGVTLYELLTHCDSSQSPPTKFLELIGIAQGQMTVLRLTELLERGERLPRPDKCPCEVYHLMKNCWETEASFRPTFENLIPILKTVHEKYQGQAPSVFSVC
Experimental: as §1, §2, §3

JAK3 = target: T4, JAK3 (Homo sapiens, UniProt P52333); assay: Functional assay of protein kinases (Caliper mobility shift), JAK3; conditions: ATP 8 μM, 30 min incubation
T4 construct: purchased Carna Biosciences 08-046
Experimental: as §1, §2, §3

JAK1 = target: T5, JAK1 (Homo sapiens, UniProt P23458); assay: Functional assay of protein kinases (Caliper mobility shift), JAK1; conditions: ATP 100 μM, 150 min incubation
T5 construct: purchased Carna Biosciences 08-144
Experimental: as §1, §2, §3

T1 sequence (O60674 826-1132 limits assumed): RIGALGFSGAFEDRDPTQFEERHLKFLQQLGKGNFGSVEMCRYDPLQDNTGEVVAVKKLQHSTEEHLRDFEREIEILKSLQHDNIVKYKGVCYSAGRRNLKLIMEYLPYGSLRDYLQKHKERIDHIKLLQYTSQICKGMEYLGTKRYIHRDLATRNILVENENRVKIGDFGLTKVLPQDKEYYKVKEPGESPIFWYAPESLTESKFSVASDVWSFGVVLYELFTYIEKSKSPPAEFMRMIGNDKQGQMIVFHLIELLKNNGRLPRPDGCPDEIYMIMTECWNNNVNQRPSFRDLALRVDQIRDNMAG
T4 sequence (P52333 795-1124 limits assumed): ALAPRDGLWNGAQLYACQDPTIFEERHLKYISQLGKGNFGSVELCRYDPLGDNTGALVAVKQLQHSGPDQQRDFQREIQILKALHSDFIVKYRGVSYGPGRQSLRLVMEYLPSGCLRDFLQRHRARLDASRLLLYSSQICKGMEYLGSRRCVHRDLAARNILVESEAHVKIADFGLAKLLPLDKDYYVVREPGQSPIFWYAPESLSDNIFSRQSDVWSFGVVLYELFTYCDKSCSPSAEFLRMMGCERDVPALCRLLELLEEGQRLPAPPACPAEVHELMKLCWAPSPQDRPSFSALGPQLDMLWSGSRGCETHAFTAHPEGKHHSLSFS
T2 sequence (Q16584 whole entry): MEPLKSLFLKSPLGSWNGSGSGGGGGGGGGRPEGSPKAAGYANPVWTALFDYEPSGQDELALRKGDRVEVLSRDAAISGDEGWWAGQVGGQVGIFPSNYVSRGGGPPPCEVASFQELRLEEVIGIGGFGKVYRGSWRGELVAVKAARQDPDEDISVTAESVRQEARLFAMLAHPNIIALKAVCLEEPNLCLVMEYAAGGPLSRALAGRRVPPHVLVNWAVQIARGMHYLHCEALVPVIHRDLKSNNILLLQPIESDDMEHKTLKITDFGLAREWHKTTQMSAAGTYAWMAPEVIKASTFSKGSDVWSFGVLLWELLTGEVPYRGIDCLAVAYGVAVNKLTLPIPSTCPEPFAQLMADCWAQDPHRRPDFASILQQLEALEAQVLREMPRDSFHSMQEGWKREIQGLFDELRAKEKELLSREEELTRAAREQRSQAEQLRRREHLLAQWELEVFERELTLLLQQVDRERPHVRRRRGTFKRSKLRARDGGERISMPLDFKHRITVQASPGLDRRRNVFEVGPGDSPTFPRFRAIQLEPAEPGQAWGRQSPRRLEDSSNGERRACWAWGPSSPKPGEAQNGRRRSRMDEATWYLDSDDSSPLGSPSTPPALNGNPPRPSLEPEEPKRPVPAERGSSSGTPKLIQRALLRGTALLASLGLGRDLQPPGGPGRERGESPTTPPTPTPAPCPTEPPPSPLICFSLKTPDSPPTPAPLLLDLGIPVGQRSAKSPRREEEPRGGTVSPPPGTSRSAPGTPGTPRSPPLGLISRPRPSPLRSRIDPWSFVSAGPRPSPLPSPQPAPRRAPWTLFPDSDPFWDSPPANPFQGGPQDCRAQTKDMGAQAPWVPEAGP
T5 sequence (P23458 850-1154 limits assumed): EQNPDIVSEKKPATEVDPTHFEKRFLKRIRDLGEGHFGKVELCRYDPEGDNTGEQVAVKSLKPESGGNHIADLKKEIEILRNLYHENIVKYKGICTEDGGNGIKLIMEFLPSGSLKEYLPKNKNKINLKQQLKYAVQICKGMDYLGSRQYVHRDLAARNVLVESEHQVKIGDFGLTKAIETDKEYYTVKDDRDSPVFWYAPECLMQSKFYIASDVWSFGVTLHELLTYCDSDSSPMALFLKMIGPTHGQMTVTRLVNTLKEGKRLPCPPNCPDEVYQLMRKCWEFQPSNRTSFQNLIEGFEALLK

| IC50 (JAK2) [nM] | IC50 (Human MLK3) [nM] | IC50 (TYK2) [nM] | IC50 (JAK3) [nM] | IC50 (JAK1) [nM] | Compound |
| --- | --- | --- | --- | --- | --- |
| ≥ 1000 | < 100 | < 100 | < 100 | ≥ 1000 | O=C(N[C@H]1CC[C@@H](C(=O)O)CC1)c1cccn2c(=O)c3cc(-c4ccncc4)ccc3nc12 [Example 17, (1S,4S)-4-(11-oxo-2-(pyridin-4-yl)-11H-pyrido[2,1-b]quinazoline-6-carboxamido)cyclohexane-1-carboxylic acid] |
| ≥ 1000 | ≥ 1000 | ≥ 1000 | 100 to 1000 | ≥ 1000 | N#Cc1ccc2nc3c(C(=O)NC4CCC(C(=O)O)CC4)cccn3c(=O)c2c1 (stereo not shown) [Example 21, 4-(2-cyano-11-oxo-11H-pyrido[2,1-b]quinazoline-6-carboxamido)cyclohexane-1-carboxylic add] |

Reference: patent US20200079773A1, “CARBOXYLIC ACID DERIVATIVES OF PYRIDOQUINAZOLINES USEFUL AS PROTEIN KINASE INHIBITORS” (ONCOSTELLAE, S.L., priority 2017, published 2020)
